The text below walks through data of patent EP4755889A1, “COMPOUND FOR DETECTING AMYLOID-BETA OLIGOMER AND METHOD FOR DIAGNOSING DEGENERATIVE BRAIN DISEASE USING SAME” (Amyloid Solution Inc., priority 2024, dated 2025).

For assay [1], the target named is T1, fibrinogen (Homo sapiens, UniProt P02671+P02675+P02679).
T1 construct: purchased Sigma-Aldrich
T1 sequence (P02671 20-629 limits assumed): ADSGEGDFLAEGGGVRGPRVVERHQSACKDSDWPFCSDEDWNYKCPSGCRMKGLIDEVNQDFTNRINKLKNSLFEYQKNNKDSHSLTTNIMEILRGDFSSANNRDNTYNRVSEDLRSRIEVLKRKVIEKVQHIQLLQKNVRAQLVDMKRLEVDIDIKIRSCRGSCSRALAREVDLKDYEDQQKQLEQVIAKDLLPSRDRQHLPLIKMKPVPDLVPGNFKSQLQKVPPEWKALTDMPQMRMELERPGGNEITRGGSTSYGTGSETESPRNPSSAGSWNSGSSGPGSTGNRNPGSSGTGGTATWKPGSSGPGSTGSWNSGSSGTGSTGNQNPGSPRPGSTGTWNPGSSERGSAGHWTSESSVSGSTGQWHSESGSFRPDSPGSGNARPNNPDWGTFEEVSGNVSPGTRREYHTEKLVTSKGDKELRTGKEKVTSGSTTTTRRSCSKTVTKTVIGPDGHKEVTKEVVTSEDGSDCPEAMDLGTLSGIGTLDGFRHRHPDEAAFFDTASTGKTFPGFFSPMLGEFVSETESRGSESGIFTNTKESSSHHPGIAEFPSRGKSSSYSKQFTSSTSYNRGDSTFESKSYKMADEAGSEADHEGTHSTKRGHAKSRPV
T1 sequence (P02675 31-491): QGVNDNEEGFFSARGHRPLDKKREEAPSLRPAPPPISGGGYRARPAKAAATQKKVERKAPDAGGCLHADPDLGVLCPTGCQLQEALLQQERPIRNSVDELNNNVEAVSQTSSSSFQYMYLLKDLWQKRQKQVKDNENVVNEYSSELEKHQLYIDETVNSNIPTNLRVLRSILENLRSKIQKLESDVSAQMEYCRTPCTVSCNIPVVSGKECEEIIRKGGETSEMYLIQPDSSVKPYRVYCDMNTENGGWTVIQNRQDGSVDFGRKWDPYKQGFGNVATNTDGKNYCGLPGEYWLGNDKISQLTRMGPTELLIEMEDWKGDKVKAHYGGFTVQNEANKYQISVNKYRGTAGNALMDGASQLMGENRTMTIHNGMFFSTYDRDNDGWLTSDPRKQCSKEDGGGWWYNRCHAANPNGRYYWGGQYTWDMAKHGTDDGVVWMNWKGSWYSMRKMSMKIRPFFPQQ
T1 sequence (P02679 27-453): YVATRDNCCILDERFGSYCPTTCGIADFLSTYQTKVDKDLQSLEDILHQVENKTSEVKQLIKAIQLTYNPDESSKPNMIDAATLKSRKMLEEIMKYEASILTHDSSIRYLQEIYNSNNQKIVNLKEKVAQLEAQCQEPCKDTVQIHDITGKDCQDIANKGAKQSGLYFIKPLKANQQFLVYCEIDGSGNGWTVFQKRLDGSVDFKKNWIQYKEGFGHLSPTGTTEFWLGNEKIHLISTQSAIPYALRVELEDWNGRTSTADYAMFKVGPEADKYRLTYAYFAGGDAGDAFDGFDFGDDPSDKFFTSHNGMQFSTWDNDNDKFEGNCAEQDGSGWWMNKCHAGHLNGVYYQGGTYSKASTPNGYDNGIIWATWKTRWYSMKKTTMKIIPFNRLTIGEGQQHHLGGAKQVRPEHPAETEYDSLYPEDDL
The assay can be described thus: Selectivity for blood proteins: fibrinogen. It is filed as binding. The note with it: IK15j (25 µM). As to the method:
Aβ1-42 peptide was aggregated at 37 °C for 8 hours, and 25 µM of Aβ1-42 oligomers, albumin (Sigma-Aldrich, USA), and fibrinogen (Sigma-Aldrich, USA) were seeded into a black microplate. Each sample was treated with IK15j (100 µM) for 8 hours at room temperature. The signal of each sample was detected using a microplate reader (λex = 285 nm / λem = 475 nm).
Excluding water, the solid components of plasma consist of coagulation factors and plasma proteins. Albumin is the most abundant protein in plasma, and fibrinogen is a major coagulation factor in plasma. Considering the possibility that fibrinogen or albumin might interact with AD diagnostic tools and interfere with compound selectivity, IK15j (25 µM) was incubated with Aβ1-42, albumin, or fibrinogen as described in Reference Example 10, and the fluorescence signal of each sample was measured to evaluate the selectivity of the compound of the present disclosure against these proteins.

Assay [2] concerns the target T2, Aβ1-42 oligomers (Homo sapiens, UniProt P05067).
T2 construct: Aβ1-42 peptide was aggregated at 37 °C for 8 hours
As to the kind of experiment: Co-incubation with Aβ1-42 oligomers and albumin. To be noted: co-incubated with Aβ1-42 oligomers and albumin. It is filed as binding. As to the method: Full-length Aβ1-42 peptide was immobilized on a maleimide-activated microplate. Then, the plate was treated with additional Aβ1-42 peptide (10 µM) at 37°C for 8 hours. After peptide immobilization, unbound peptides were removed by washing three times with 200 µL of wash buffer. To form albumin-Aβ oligomer complexes, the plate was treated with albumin (10 µM, Sigma-Aldrich, USA) at room temperature for 24 hours, and unbound residues were removed by washing three times with 200 µL of wash buffer. The control Aβ oligomer wells were not treated with albumin. Each well was treated with the compound of the present disclosure (100 µM), and the signal of each sample was detected using a microplate reader (λex = 285 nm / λem = 475 nm).
In addition, to investigate whether albumin interferes with the binding between IK15j and Aβ1-42 oligomers, IK15j was co-incubated with Aβ1-42 oligomers and albumin as described in Reference Example 11, and the fluorescence signal of each sample was analyzed.

T2 sequence (P05067 672-713): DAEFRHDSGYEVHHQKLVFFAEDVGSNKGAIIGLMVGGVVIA

With `Cc1ccc2c(c1)c(-c1ccccc1)cn1c(C)cc(C#N)c21` [IK15j, 3,8-dimethyl-6-phenylpyrrolo[2,1-a]isoquinoline-1-carbonitrile], the interaction with fibrinogen result in assay [1] was “did not interact”. Besides, the “signal of Aβ1-42 oligomer and albumin sample compared to Aβ1-42 oligomer-only sample” value in assay [2] is on record as “decreased compared to the Aβ1-42 oligomer-only sample, the difference was not significant”.
